PubChem BioAssay (NCI)
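Method: 48-hour compound exposure of cells in 96-well plates, five concentrations, linear interpolation of endpoints. GI50 marks 50% less growth. TGI is the concentration that stops growth completely.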

Tests used:
Assay in all cases: NCI tumour cell line growth inhibition, 48 h
MDA-MB-435 = system: MDA-MB-435
T-47D breast = system: T-47D breast
CCRF-CEM leukemia = system: CCRF-CEM leukemia
SW-620 colon = system: SW-620 colon
MCF7 breast = system: MCF7 breast
SK-MEL-5 melanoma = system: SK-MEL-5 melanoma
A549 NSCLC = system: A549 NSCLC
K-562 leukemia = system: K-562 leukemia
HCT-15 colon = system: HCT-15 colon
RPMI-8226 leukemia = system: RPMI-8226 leukemia
SF-268 CNS = system: SF-268 CNS
786-0 renal = system: 786-0 renal
SF-295 CNS = system: SF-295 CNS
HL-60(TB) leukemia = system: HL-60(TB) leukemia
MOLT-4 leukemia = system: MOLT-4 leukemia
KM12 colon = system: KM12 colon
NCI-H460 lung = system: NCI-H460 lung
M14 melanoma = system: M14 melanoma
ACHN renal = system: ACHN renal
SN12C renal = system: SN12C renal
COLO 205 colon = system: COLO 205 colon
OVCAR-3 ovarian = system: OVCAR-3 ovarian
UO-31 renal = system: UO-31 renal
OVCAR-8 ovarian = system: OVCAR-8 ovarian
HT29 colon = system: HT29 colon
NCI-H522 lung = system: NCI-H522 lung
HCT-116 colon = system: HCT-116 colon
MDA-N = system: MDA-N
CAKI-1 renal = system: CAKI-1 renal
SK-OV-3 ovarian = system: SK-OV-3 ovarian
IGROV1 ovarian = system: IGROV1 ovarian
UACC-62 melanoma = system: UACC-62 melanoma
HOP-62 NSCLC = system: HOP-62 NSCLC
PC-3 prostate = system: PC-3 prostate
TK-10 renal = system: TK-10 renal
RXF 393 renal = system: RXF 393 renal
MALME-3M melanoma = system: MALME-3M melanoma
UACC-257 melanoma = system: UACC-257 melanoma
MDA-MB-231 breast = system: MDA-MB-231 breast
EKVX NSCLC = system: EKVX NSCLC
SK-MEL-28 melanoma = system: SK-MEL-28 melanoma
DU-145 prostate = system: DU-145 prostate
SR leukemia = system: SR leukemia
HCC-2998 colon = system: HCC-2998 colon
NCI-H23 lung = system: NCI-H23 lung
SNB-75 CNS = system: SNB-75 CNS
OVCAR-5 ovarian = system: OVCAR-5 ovarian
SNB-19 CNS = system: SNB-19 CNS
A498 renal = system: A498 renal
U251 CNS = system: U251 CNS
HS 578T breast = system: HS 578T breast
LOX IMVI melanoma = system: LOX IMVI melanoma
HOP-92 NSCLC = system: HOP-92 NSCLC
NCI/ADR-RES ovarian = system: NCI/ADR-RES ovarian
SK-MEL-2 melanoma = system: SK-MEL-2 melanoma
SF-539 CNS = system: SF-539 CNS

O=C(O)CC(NC(=O)CP(=O)(O)O)C(=O)O.[NH-]C1CCCCC1[NH-].[Pt+2] (centres undefined)
GI50 (MDA-MB-435): 75.9 µM
GI50 (T-47D breast): 94.7 µM
GI50 (CCRF-CEM leukemia): 18 µM
GI50 (SW-620 colon): 19.6 µM
GI50 (MCF7 breast): 75.8 µM
GI50 (SK-MEL-5 melanoma): 70.2 µM
GI50 (A549 NSCLC): 56.4 µM
GI50 (K-562 leukemia): 5.38 µM
GI50 (HCT-15 colon): 67.9 µM
GI50 (RPMI-8226 leukemia): 5.93 µM
GI50 (SF-268 CNS): 78.8 µM
GI50 (786-0 renal): 52 µM
GI50 (SF-295 CNS): 56.3 µM
GI50 (HL-60(TB) leukemia): 40.2 µM
GI50 (MOLT-4 leukemia): 0.675 µM
TGI (MOLT-4 leukemia): 31.4 µM
GI50 (KM12 colon): 84.1 µM
GI50 (NCI-H460 lung): 42.2 µM
GI50 (M14 melanoma): 77.2 µM
GI50 (ACHN renal): 84.7 µM
GI50 (SN12C renal): 96.6 µM
GI50 (COLO 205 colon): 51 µM
GI50 (OVCAR-3 ovarian): 88.3 µM
GI50 (UO-31 renal): 41.3 µM
GI50 (OVCAR-8 ovarian): 74.4 µM
GI50 (HT29 colon): 56.3 µM
GI50 (NCI-H522 lung): 60.8 µM
GI50 (HCT-116 colon): 30.4 µM
GI50 (MDA-N): 70.5 µM
GI50 (CAKI-1 renal): 96.2 µM

Clc1ccc(/C=N/Nc2nnc3c4ccccc4c4ncccc4c3n2)cc1
TGI (SK-OV-3 ovarian): > 10 µM
TGI (T-47D breast): > 10 µM
TGI (IGROV1 ovarian): > 10 µM
TGI (SW-620 colon): > 10 µM
TGI (MCF7 breast): > 10 µM
TGI (SK-MEL-5 melanoma): > 10 µM
TGI (UACC-62 melanoma): > 10 µM
TGI (A549 NSCLC): > 10 µM
TGI (K-562 leukemia): > 10 µM
TGI (HCT-15 colon): > 10 µM
TGI (HOP-62 NSCLC): > 10 µM
TGI (RPMI-8226 leukemia): > 10 µM
TGI (SF-268 CNS): > 10 µM
TGI (786-0 renal): > 10 µM
TGI (SF-295 CNS): > 10 µM
TGI (HL-60(TB) leukemia): > 10 µM
TGI (PC-3 prostate): > 10 µM
TGI (TK-10 renal): > 10 µM
TGI (MOLT-4 leukemia): > 10 µM
TGI (RXF 393 renal): > 10 µM
TGI (KM12 colon): > 10 µM
TGI (MALME-3M melanoma): > 10 µM
TGI (UACC-257 melanoma): > 10 µM
TGI (M14 melanoma): > 10 µM
TGI (MDA-MB-231 breast): > 10 µM
TGI (EKVX NSCLC): > 10 µM
TGI (SK-MEL-28 melanoma): > 10 µM
TGI (SN12C renal): > 10 µM
TGI (DU-145 prostate): > 10 µM
TGI (COLO 205 colon): > 10 µM
TGI (SR leukemia): > 10 µM
TGI (OVCAR-8 ovarian): > 10 µM
TGI (HCC-2998 colon): > 10 µM
TGI (HT29 colon): > 10 µM
TGI (NCI-H23 lung): > 10 µM
TGI (SNB-75 CNS): > 10 µM
TGI (MDA-N): > 10 µM
TGI (CAKI-1 renal): > 10 µM

CC1(C)O[C@H]2OC(CO)C(OS(C)(=O)=O)[C@H]2O1 (some centres undefined)
TGI (MDA-MB-435): > 100 µM
TGI (T-47D breast): > 100 µM
TGI (IGROV1 ovarian): > 100 µM
TGI (CCRF-CEM leukemia): > 100 µM
TGI (SW-620 colon): > 100 µM
TGI (MCF7 breast): > 100 µM
TGI (OVCAR-5 ovarian): > 100 µM
TGI (SK-MEL-5 melanoma): > 100 µM
TGI (UACC-62 melanoma): > 100 µM
TGI (A549 NSCLC): > 100 µM
TGI (SNB-19 CNS): > 100 µM
TGI (HCT-15 colon): > 100 µM
TGI (A498 renal): > 100 µM
TGI (HOP-62 NSCLC): > 100 µM
TGI (U251 CNS): > 100 µM
TGI (RPMI-8226 leukemia): > 100 µM
TGI (SF-268 CNS): > 100 µM
TGI (786-0 renal): > 100 µM
TGI (SF-295 CNS): > 100 µM
TGI (HL-60(TB) leukemia): > 100 µM
TGI (PC-3 prostate): > 100 µM
TGI (HS 578T breast): > 100 µM
TGI (TK-10 renal): > 100 µM
TGI (KM12 colon): > 100 µM
TGI (MALME-3M melanoma): > 100 µM
TGI (UACC-257 melanoma): > 100 µM
TGI (NCI-H460 lung): > 100 µM
TGI (LOX IMVI melanoma): > 100 µM
TGI (M14 melanoma): > 100 µM
TGI (MDA-MB-231 breast): > 100 µM
TGI (ACHN renal): > 100 µM
TGI (EKVX NSCLC): > 100 µM
TGI (SK-MEL-28 melanoma): > 100 µM
TGI (SN12C renal): > 100 µM
TGI (DU-145 prostate): > 100 µM
TGI (HOP-92 NSCLC): > 100 µM
TGI (NCI/ADR-RES ovarian): > 100 µM
TGI (COLO 205 colon): > 100 µM
TGI (OVCAR-3 ovarian): > 100 µM
TGI (SK-MEL-2 melanoma): > 100 µM
TGI (UO-31 renal): > 100 µM
TGI (OVCAR-8 ovarian): > 100 µM
TGI (HCC-2998 colon): > 100 µM
TGI (HT29 colon): > 100 µM
TGI (NCI-H522 lung): > 100 µM
TGI (NCI-H23 lung): > 100 µM
TGI (SNB-75 CNS): > 100 µM
TGI (HCT-116 colon): > 100 µM
TGI (SF-539 CNS): > 100 µM
TGI (MDA-N): > 100 µM
TGI (CAKI-1 renal): > 100 µM
